The source of these data is patent US20250049036A1 (priority 2021, published 2025).

One assay concerns Pyricularia oryzae. In words: microbe, parasite or virus in culture. The format is cell-based. The note with it: 168 h, read-out: control compared to the untreated check.
In the case of `O=C(NC1(C(F)(F)F)CC1)c1cnc2ccsc2c1` [Compound 108, N-(1-(trifluoromethyl)cyclopropyl)thieno [3,2-b]pyridine-6-carboxamide], the inhibition of growth at 300 ppm was not below 70%.
Consider `C=C(C)CC(C)(COc1ccccc1F)NC(=O)c1cnc2c(c1)c(Br)cn2C` (stereo not shown) [Compound 176, 3-bromo-N-(1-(2-fluorophenoxy)-2,4-dimethylpent-4-en-2-yl)-1-methyl-1H-pyrrolo[2,3-b]pyridine-5-carboxamide], for which the inhibition of growth at 300 ppm was not below 70%.
Still for that read-out and setting: as for `Cn1cc(Br)c2cc(C(=O)NC(C)(C)COC(=O)c3ccccc3C(F)(F)F)cnc21` [Compound 180, 2-(3-bromo-1-methyl-1H-pyrrolo[2,3-b]pyridine-5-carboxamido)-2-methylpropyl 2-(trifluoromethyl)benzoate], the figure is not below 70%; as for `Cc1ccccc1C(=O)OCC(C)(C)NC(=O)c1cnc2c(c1)c(Br)cn2C` [Compound 185, 2-(3-bromo-1-methyl-1H-pyrrolo[2,3-b]pyridine-5-carboxamido)-2-methylpropyl 2-methylbenzoate], not below 70%.
On the same count and under the same terms, for `Cn1cc(Cl)c2cc(C(=O)NC(C)(C)COCc3cc(F)ccc3Cl)cnc21` [Compound 214, 3-chloro-N-(1-((2-chloro-5-fluorobenzyl)oxy)-2-methylpropan-2-yl)-1-methyl-1H-pyrrolo[2,3-b]pyridine-5-carboxamide] the value was not below 70%; for `Cn1cc(Cl)c2cc(C(=O)NC(C)(C)COc3ccnc(Cl)c3)cnc21` [Compound 220, 3-chloro-N-(1-((2-chloropyridin-4-yl)oxy)-2-methylpropan-2-yl)-1-methyl-1H-pyrrolo[2,3-b]pyridine-5-carboxamide], not below 70%.

In the next assay the test system is Parastagonospora nodorum. In words: Parastagonospora nodorum (PARANO) spore growth inhibition in liquid medium, 96-well microtiter plate, OD 600. Format: cell-based. The note with it: spore suspension in PDB liquid medium, 18° C., 5-6 days, OD at 600, read-out: control compared to the untreated check. The procedure: Potato dextrose (PDB) liquid medium (Difco) containing a PARANO (10^5 spores/ml) spore suspension was prepared. For the inhibition assay, each test compound was solved in dimethyl sulfoxide. 100 μl of the test compound in media-solution was added to a 96-well microtiter plate, consequently, the same volume (100 μl) of spore suspension was added to the well making the final test concentrations and the plate was incubated at 18° C. for 5-6 days. The growth inhibition was evaluated by measuring the OD at 600. Percent inhibition was calculated with the below formula: […]
For the molecule `Cn1ccc2cc(C(=O)NC(C)(C)Cc3ccc(C(C)(C)C)cc3)cnc21` [Compound 16, N-(1-(4-(tert-butyl)phenyl)-2-methylpropan-2-yl)-1-methyl-1H-pyrrolo[2,3-b]pyridine-5-carboxamide], the inhibition of growth at 300 ppm was not below 70%.
For `Cn1ccc2cc(C(=O)NC(C)(C)Cc3ccccc3Cl)cnc21` [Compound 17, N-(1-(2-chlorophenyl)-2-methylpropan-2-yl)-1-methyl-1H-pyrrolo[2,3-b]pyridine-5-carboxamide], the inhibition of growth at 300 ppm was not below 70%.
Same read-out and setting: for `CC(C)c1ccc(CC(C)(C)NC(=O)c2cnc3c(ccn3C)c2)cc1` [Compound 18, N-(1-(4-isopropylphenyl)-2-methylpropan-2-yl)-1-methyl-1H-pyrrolo[2,3-b]pyridine-5-carboxamide] the value was not below 70%; for `Cn1cc(C2CC2)c2cc(C(=O)NC(C)(C)Cc3ccccc3F)cnc21` [Compound 60, 3-cyclopropyl-N-(1-(2-fluorophenyl)-2-methylpropan-2-yl)-1-methyl-1H-pyrrolo[2,3-b]pyridine-5-carboxamide], not below 70%.
Take `O=C(NC1(C(F)(F)F)CC1)c1cnc2ccsc2c1` [Compound 108, N-(1-(trifluoromethyl)cyclopropyl)thieno [3,2-b]pyridine-6-carboxamide]: the inhibition of growth at 300 ppm was not below 70%.
On the same count and under the same terms, as for `Cc1ccc(F)cc1C(O)C(C)(C)NC(=O)c1cnc2c(c1)c(Br)cn2C` (stereo not shown) [Compound 135, 3-bromo-N-(1-(5-fluoro-2-methylphenyl)-1-hydroxy-2-methylpropan-2-yl)-1-methyl-1H-pyrrolo[2,3-b]pyridine-5-carboxamide], the figure is not below 70%; as for `Cc1cc(F)ccc1C(O)C(C)(C)NC(=O)c1cnc2ccsc2c1` (stereo not shown) [Compound 173, N-(1-(4-fluoro-2-methylphenyl)-1-hydroxy-2-methylpropan-2-yl)thieno[3,2-b] pyridine-6-carboxamide], not below 70%; as for `C=C(C)CC(C)(COc1ccccc1F)NC(=O)c1cnc2c(c1)c(Br)cn2C` (stereo not shown) [Compound 176, 3-bromo-N-(1-(2-fluorophenoxy)-2,4-dimethylpent-4-en-2-yl)-1-methyl-1H-pyrrolo[2,3-b]pyridine-5-carboxamide], not below 70%.
Still for that read-out and setting: as for `C=C(C)CC(C)(COc1ccccc1F)NC(=O)c1cnc2c(c1)c(Cl)cn2C` (stereo not shown) [Compound 179], the figure is not below 70%; as for `Cc1ccc(COCC(C)(C)NC(=O)c2cnc3ccsc3c2)c(C)c1` [Compound 200, N-(1-((2,4-dimethylbenzyl)oxy)-2-methylpropan-2-yl)thieno[3,2-b] pyridine-6-carboxamide], not below 70%.
The same measure, in the same setting: for `CC(C)(COc1ccnc(Cl)c1)NC(=O)c1cnc2ccsc2c1` [Compound 205, N-(1-((2-chloropyridin-4-yl)oxy)-2-methylpropan-2-yl)thieno[3,2-b] pyridine-6-carboxamide] the value was not below 70%; for `CC(C)(Cc1ccccc1)NC(=O)c1cc2c(nc1Cl)CCC2` [Compound 210, 2-chloro-N-(2-methyl-1-phenylpropan-2-yl)-6,7-dihydro-5H-cyclopenta[b]pyridine-3-carboxamide], not below 70%.
For the molecule `COc1nc2c(cc1C(=O)NC(C)(C)Cc1ccccc1)CCC2` [Compound 217, 2-methoxy-N-(2-methyl-1-phenylpropan-2-yl)-6,7-dihydro-5H-cyclopenta[b]pyridine-3-carboxamide], the inhibition of growth at 300 ppm is not below 70%.
The same measure, in the same setting: for `Cc1ccc(C)c(COCC(C)(C)NC(=O)c2cnc3c(ccn3C)c2)c1` [Compound 227, N-(1-((2,5-dimethylbenzyl)oxy)-2-methylpropan-2-yl)-1-methyl-1H-pyrrolo[2,3-b]pyridine-5-carboxamide] the value was not below 70%; for `COc1nc2c(cc1C(=O)NC(C)(C)COc1ccnc(Cl)c1)CCC2` [Compound 243, N-(1-((2-chloropyridin-4-yl)oxy)-2-methylpropan-2-yl)-2-methoxy-6,7-dihydro-5H-cyclopenta[b]pyridine-3-carboxamide], not below 70%.
Consider `COc1nc2c(cc1C(=O)NC1(Cc3ccccc3)CC1)CCC2` [Compound 245, N-(1-benzylcyclopropyl)-2-methoxy-6,7-dihydro-5H-cyclopenta[b]pyridine-3-carboxamide], for which the inhibition of growth at 300 ppm was not below 70%.
On the same count and under the same terms, for `CON(C(=O)c1cnc2c(c1)CCC2)C(C)Cc1ccccc1F` (stereo not shown) [Compound 253, N-(1-(2-fluorophenyl)propan-2-yl)-N-methoxy-6,7-dihydro-5H-cyclopenta[b]pyridine-3-carboxamide] the value was not below 70%.

For the next assay, the system named is Phakopsora pachyrhizi. In words: Phakopsora pachyrhizi test on soybean, preventive, greenhouse. The following applies: preventive spray on soybean, inoculated one day after treatment, read-out: control (efficacy, disease severity) compared to the untreated check. The format is in vivo. On the procedure:
The respective compound was dissolved in 2% dimethyl sulfoxide/acetone and then mixed with water containing emulsifier to the calibrated spray volume of 30 mL. Each spray solution was poured into a spray bottle for further application.
To test the preventive activity of a compound, healthy young soybean plants, raised in the greenhouse, were sprayed with the active compound preparation at the stated application rate inside the spray cabinets using hollow cone nozzles. One day after treatment, the plants were inoculated with a conidial suspension containing 2×10^5 Phakopsora pachyrhizi inoculum. The inoculated plants were then kept in a greenhouse chamber at 22-24° C. temperature and 80-90% relative humidity for disease expression.
With `Cn1ccc2cc(C(=O)NC(C)(C)Cc3cccc(Cl)c3)cnc21` [Compound 22, N-(1-(3-chlorophenyl)-2-methylpropan-2-yl)-1-methyl-1H-pyrrolo[2,3-b]pyridine-5-carboxamide], the pest or weed control at 500 ppm was not below 70%.
On the same count and under the same terms, as for `CC(c1ccccc1)C(C)(C)NC(=O)c1cnc2c(c1)c(Cl)cn2C` (stereo not shown) [Compound 87, 3-chloro-1-methyl-N-(2-methyl-3-phenylbutan-2-yl)-1H-pyrrolo[2,3-b]pyridine-5-carboxamide], the figure is not below 70%.
The same measure, in the same setting: as for `COc1nc2[nH]ccc2cc1C(=O)NC(C)(C)Cc1ccccc1` [Compound 88, 6-methoxy-N-(2-methyl-1-phenylpropan-2-yl)-1H-pyrrolo[2,3-b] pyridine-5-carboxamide], the figure is not below 70%.
The same measure, in the same setting: as for `Cc1nc2[nH]ccc2cc1C(=O)NC(C)(C)Cc1ccccc1` [Compound 93, 6-methyl-N-(2-methyl-1-phenylpropan-2-yl)-1H-pyrrolo[2,3-b] pyridine-5-carboxamide], the figure is not below 70%.
For the molecule `Cc1nc2[nH]ccc2cc1C(=O)NC(C)(C)Cc1ccc(F)cc1` [Compound 94, N-(1-(4-fluorophenyl)-2-methylpropan-2-yl)-6-methyl-1H-pyrrolo[2,3-b]pyridine-5-carboxamide], the pest or weed control at 500 ppm is not below 70%.
On the same count and under the same terms, as for `Cc1cccc(CC(NC(=O)c2cnc3[nH]ccc3c2)C(C)(C)O)c1` (stereo not shown) [Compound 104, N-(3-hydroxy-3-methyl-1-(m-tolyl)butan-2-yl)-1H-pyrrolo[2,3-b]pyridine-5-carboxamide], the figure is not below 70%; as for `C=CCC(C)(Cc1ccccc1F)NC(=O)c1cnc2ccsc2c1` (stereo not shown) [Compound 134, N-(1-(2-fluorophenyl)-2-methylpent-4-en-2-yl)thieno[3,2-b] pyridine-6-carboxamide], not below 70%; as for `Cn1cc(Cl)c2cc(C(=O)NC3Cc4ccccc4C3)cnc21` [Compound 137, 3-chloro-N-(2,3-dihydro-1H-inden-2-yl)-1-methyl-1H-pyrrolo[2,3-b]pyridine-5-carboxamide], not below 70%.
For the molecule `CCC(O)(CC)C(NC(=O)c1cnc2c(c1)c(Cl)cn2C)c1ccccc1` (stereo not shown) [Compound 138, 3-chloro-N-(2-ethyl-2-hydroxy-1-phenylbutyl)-1-methyl-1H-pyrrolo[2,3-b] pyridine-5-carboxamide], the pest or weed control at 500 ppm was not below 70%.
Same read-out and setting: as for `Cn1cc(Cl)c2cc(C(=O)NC3(c4cc(Cl)cc(Cl)c4)CC3)cnc21` [Compound 140, 3-chloro-N-(1-(3,5-dichlorophenyl)cyclopropyl)-1-methyl-1H-pyrrolo[2,3-b]pyridine-5-carboxamide], the figure is not below 70%.
The same measure, in the same setting: for `C=C(C)CC(C)(Cc1ccccc1F)NC(=O)c1cnc2c(c1)c(Br)cn2C` (stereo not shown) [Compound 142, 3-bromo-N-(1-(2-fluorophenyl)-2,4-dimethylpent-4-en-2-yl)-1-methyl-1H-pyrrolo[2,3-b]pyridine-5-carboxamide] the value was not below 70%.
